Earlier results on one compound are cited in patent US20010049447A1, “Mibefradil analogues and their use” (priority 2000, published 2001).

This data set deals with fructose fed rats.

Consider `COCC(=O)O[C@]1(CCN(C)CCCc2nc3ccccc3[nH]2)CCc2cc(F)ccc2[C@@H]1C(C)C.Cl.Cl` [mibefradil, Methoxyacetic acid 2(S)-[2-[N-[3-(2-benzimidazolyl)propyl]-N-methylamino]ethyl]-6-fluoro-1(S)-isopropyl-1,2,3,4-tetrahydro-2-naphthyl ester dihydrochloride], for which the blood pressure entry is recorded as “decrease” and the hyperinsulinemia result was “decrease”.
